Measurements as given in patent EP0151939A2, “Pyrimidinediones and dihydroxypyrimidines, and process for the preparation of pyrimidinedones and dihydroxypyrimidines” (BAYER AG, priority 1984, dated 1985).

Legend:
Type in all cases: in vivo
[1] = tested on: Hafer; assay: Pre-emergence test; details: 2 kg/ha, rated after three weeks
Text: (§1) Losungsmittel: 5 Gewichtsteile Aceton Emulgator: 1 Gewichtsteil Alkylarylpolyglykolether
(§2) Zur Herstellung einer zweckmäßigen Wirkstoffzubereitung vermischt man 1 Gewichtsteil Wirkstoff mit der angegebenen Menge Lösungsmittel, gibt die angegebene Menge Emulgator zu und verdünnt das Konzentrat mit Wasser auf die gewünschte Konzentration.
(§3) Samen der Testpflanzen werden in normalen Boden ausgesät und nach 24 Stunden mit der Wirkstoffzubereitung begossen. Dabei hält man die Wassermenge pro Flächeneinheit zweckmäßigerweise konstant. Die Wirkstoffkonzentration in der Zubereitung spielt keine Rolle, entscheidend ist nur die Aufwandmenge des Wirkstoffs pro Flächeneinheit. Nach drei Wochen wird der Schädigungsgrad der Pflanzen bonitiert.

[2] = tested on: Mais; assay: Pre-emergence test; details: 2 kg/ha, rated after three weeks
Text: as §1, §2, §3

[3] = tested on: Senf; assay: Pre-emergence test; details: 2 kg/ha, rated after three weeks
Text: as §1, §2, §3

[4] = tested on: Weizen; assay: Pre-emergence test; details: 2 kg/ha, rated after three weeks
Text: as §1, §2, §3

[5] = tested on: Rüben; assay: Post-emergence test; details: 1 kg/ha, rated after three weeks
Text: as §2, with “Lösungsmittel: 5 Gewichtsteile Aceton Emulgator: 1 Gewichtsteil Alkylarylpolyglykolether Zur” for “Zur”
(§4) Mit der Wirkstoffzubereitung spritzt man Testpflanzen, welche eine Höhe von 5 - 15 cm haben so, daß die jeweils gewünschten Wirkstoffmengen pro Flächeneinheit ausgebracht werden. Die Konzentration der Spritzbrühe wird so gewählt, daß in 2000 1 Wasser/ha die jeweils gewünschten Wirkstoffmengen ausgebracht werden. Nach drei Wochen wird der Schädigungsgrad der Pflanzen bonitiert.

[6] = tested on: Senf; assay: Post-emergence test; details: 1 kg/ha, rated after three weeks
Text: as §2, with “Lösungsmittel: 5 Gewichtsteile Aceton Emulgator: 1 Gewichtsteil Alkylarylpolyglykolether Zur” for “Zur”
as §4

[7] = tested on: Weizen; assay: Post-emergence test; details: 1 kg/ha, rated after three weeks
Text: as §2, with “Lösungsmittel: 5 Gewichtsteile Aceton Emulgator: 1 Gewichtsteil Alkylarylpolyglykolether Zur” for “Zur”
as §4

[8] = tested on: Baumwolle; assay: Post-emergence test; details: 1 kg/ha, rated after three weeks
Text: as §2, with “Lösungsmittel: 5 Gewichtsteile Aceton Emulgator: 1 Gewichtsteil Alkylarylpolyglykolether Zur” for “Zur”
as §4

[9] = tested on: Bohnen; assay: Post-emergence test; details: 1 kg/ha, rated after three weeks
Text: as §2, with “Lösungsmittel: 5 Gewichtsteile Aceton Emulgator: 1 Gewichtsteil Alkylarylpolyglykolether Zur” for “Zur”
as §4

[10] = tested on: Hafer; assay: Post-emergence test; details: 1 kg/ha, rated after three weeks
Text: as §2, with “Lösungsmittel: 5 Gewichtsteile Aceton Emulgator: 1 Gewichtsteil Alkylarylpolyglykolether Zur” for “Zur”
as §4

[11] = tested on: Mais; assay: Post-emergence test; details: 1 kg/ha, rated after three weeks
Text: as §2, with “Lösungsmittel: 5 Gewichtsteile Aceton Emulgator: 1 Gewichtsteil Alkylarylpolyglykolether Zur” for “Zur”
as §4

[12] = tested on: Rüben; assay: Pre-emergence test; details: 2 kg/ha, rated after three weeks
Text: as §1, §2, §3

[13] = tested on: Hirse; assay: Pre-emergence test; details: 2 kg/ha, rated after three weeks
Text: as §1, §2, §3

Structure (SMILES) | Wirkung (Schädigungsgrad der Pflanzen) [1] | Wirkung (Schädigungsgrad der Pflanzen) [2] | Wirkung (Schädigungsgrad der Pflanzen) [3] | Wirkung (Schädigungsgrad der Pflanzen) [4] | Wirkung (Schädigungsgrad der Pflanzen) [5] | Wirkung (Schädigungsgrad der Pflanzen) [6] | Wirkung (Schädigungsgrad der Pflanzen) [7] | Wirkung (Schädigungsgrad der Pflanzen) [8] | Wirkung (Schädigungsgrad der Pflanzen) [9] | Wirkung (Schädigungsgrad der Pflanzen) [10] | Wirkung (Schädigungsgrad der Pflanzen) [11] | Wirkung (Schädigungsgrad der Pflanzen) [12] | Wirkung (Schädigungsgrad der Pflanzen) [13]
O=c1[nH]c(C(F)(F)F)c(F)c(=O)[nH]1 [Produkt aus Beispiel 5 und 14, 5-Fluor-6-trifluormethyl-2,4-(lH,3H)-pyrimidindion] | zum größeren Teil ver-nichtet | fast nicht | zum größeren Teil ver-nichtet | fast nicht | vollständig oder nahezu vollständig vernichtet | vollständig oder nahezu vollständig vernichtet | praktisch nicht | – | – | – | – | – | –
O=c1[nH]c(C(F)(F)F)c(Cl)c(=O)[nH]1 [Produkt aus Beispiel 13, 5-Chlor-6-trifluor-2,4-(lH,3H)-pyrimidindion] | – | – | – | – | praktisch nicht | voll-ständig oder nahezu vollständig vernichtet | praktisch nicht | voll-ständig oder nahezu vollständig vernichtet | voll-ständig oder nahezu vollständig vernichtet | praktisch nicht | voll-ständig oder nahezu vollständig vernichtet | – | –
O=c1[nH]c(C(F)(F)Cl)c(Cl)c(=O)[nH]1 [Produkt aus Beispiel 15] | praktisch nicht | praktisch nicht | nahezu vollständig ver-nichtet | praktisch nicht | – | vollständig vernichtet | praktisch nicht | – | – | praktisch nicht | praktisch nicht | nahezu vollständig ver-nichtet | –
O=c1[nH]c(C(F)(Cl)Cl)c(Cl)c(=O)[nH]1 [Produkt aus Beispiel 16] | praktisch nicht | praktisch nicht | zum größeren Teil vernichtet | praktisch nicht | – | – | – | – | – | – | – | – | praktisch nicht
